# Measurements published in patent publication US6989435B2, “Compounds and methods to inhibit or augment an inflammatory response” (Cambridge University Technical Services Ltd., priority 1997, dated 2006).
# Marks after values point to notes of the source that are not given here. Positions of bridges follow the written chain, without caps; N, C: chain ends. Non-standard residues stand in square brackets, D forms with d. Residues, ends and D or L forms follow the SMILES beside them. ξ: configuration not given here. ξI = CCC(C)C(N)C(=O)O
# What was measured:
# [1] = Plasma concentration after a single intraperitoneal dose; format: in vivo; conditions: ip, 24 hours after a single intraperitoneal dose of 1 mg in 250 μl saline
# Description: (§1) For example, to prepare a peptide 3 derivative, peptide 3(3-12)[MCP-1] was modified according to Jameson et al. (Nature, 368, 744 (1994)), which yielded CRD-Cys13leu4ile11peptide 3[MCP-1] (FIG. 4). CRD-Cys13eu4ile11peptide 3[MCP-1], which had very similar properties to peptide 3(1-12)[MCP-1] […] CRD-Cys13leu4ile11peptide 3[MCP-1] was also resistant to hydrolysis in vivo and allowed therapeutically useful plasma concentrations to be achieved (>10 μM 24 hours after a single intraperitoneal dose of 1 mg of CRD-Cys13leu4ile11peptide 3[MCP-1] in 250 μl saline).
# [2] = system: trypsin; assay: Stability against enzymatic destruction; format: in vitro ADME; conditions: 5 units trypsin for 2 hrs at 37° C.
# Description: as §1
# [3] = Stability against acid hydrolysis; format: physicochemical; conditions: pH 2.0 for 2 hrs at 37° C.
# Description: as §1
# [4] = system: chemokine receptors on THP-1 cells; assay: Binding to THP-1 cells; set-up: species or system human; conditions: Table 7
# Description: In general, specific binding is calculated as the amount of labeled agent bound in the absence of cold competitor minus the amount of labeled agent bound in the presence of cold competitor. The amount of specific binding in the presence of varied amounts of cold competitor can be used to determine the association constant for the agent, as well as the number of binding sites on the cell for the agent, using, for example, Scatchard Analysis. The agent may be labeled by radiolabeling (e.g., iodination) or with a suitable biochemical tag (e.g., biotin) or by addition of a photoactivatable crosslinking group. […]
# For example, monocytes are suspended in RPMI 1640 medium without bicarbonate containing 0.2% bovine serum albumin and 0.1% azide. […] Filters are washed with 4 ml of cold wash buffer, and the radioactivity bound to the filters is counted in a γ-counter.
# For competition studies, the IC50 is calculated with a curve fitting program (GraFit, Erithacus Software, London), using a four-parameter logistic, cpmbound=cpmmax/(1+([L]/IC50)^S)+cpmns, where cpmmax represents the binding without competitor, [L] is the competitor concentration, cpmns is the non-specific binding, and s is the slope factor. […]
Compound,level at time molar at 24 h [1],stability against enzymatic destruction [2],degradation by acid hydrolysis [3],AVERAGE ED50 (peptide 2 family: estimated ka for binding to THP-1 cells) [4]
CCC(C)C1NC(=O)[C@@H](CCC(N)=O)NC(=O)[C@H](N)CSSC[C@H](C(=O)O)NC(=O)[C@@H](CC(C)C)NC(=O)[C@@H](CC(=O)O)NC(=O)[C@H]2CCCN2C(=O)[C@@H](CCCCN)NC(=O)[C@@H](CCC(N)=O)NC(=O)[C@@H](CCCCN)NC(=O)[C@@H](Cc2c[nH]c3ccccc23)NC1=O (stereo partly drawn) [CRD-Cys13Leu4ile11peptide 3] (H-[dC][dQ][ξI][dW][dK][dQ][dK][dP][dD][dL][dC]-OH; disulfide 1-11; N-terminus and C-terminus assumed),> 10 µM,stable,< 10%,–
ELRVIESGPHCANTEI [Pep2[IL8]],–,–,–,1-10^c μM
HLKILNTPNCALQIV [Pep2[SDF1]],–,–,–,1-10^c μM
